According to patent US10131639B2, “Formulations of 2-(tert-butylamino)-4-((1R,3R,4R)-3-hydroxy-4methylcyclohexylamino)-pyrimidine-5-carboxamide” (Signal Pharmaceuticals, LLC, priority 2014, dated 2018):

What was measured:
[1] = Hygroscopicity by dynamic vapor sorption (DVS); type: physicochemical; conditions: for Hygroscopicity (80% RH, 25° C., cycle 1 sorption): DVS water uptake, L-tartrate: hydrate, difference between 20% RH and 80% RH
From the text: DVS: A portion of the sample was loaded into a quartz sample holder and tested using DVS-Advantage system in two continuous adsorption/desorption cycles. The settings are described as follows:
Adsorption/desorption cycle 1: 50 to 95 to 0% RH;
Adsorption/desorption cycle 2: 0 to 95 to 0% RH;

[2] = Solid state physical stability under stress conditions (XRPD); type: physicochemical; conditions: XRPD vs initial material
Procedure: A portion of the sample was loaded to a 4 mL clear glass vial. Four samples were prepared for each salt. The vials (open) were stored under 4 different stress conditions, respectively.

[3] = Solid state chemical stability under stress conditions (HPLC with UV detection); conditions: for Chemical stability (open vial, 2 weeks) / Chemical stability (open vial, 2 weeks): degradation: HPLC/UV; for % Remaining at 80° C. / % Remaining at 80° C./75% RH: solid state, open vial, 2 weeks, HPLC with UV detection
Procedure: Six vials were prepared for each salt. Two samples were stored in the refrigerator. The other four samples in open vials were stored under 4 stress conditions, respectively. […] One set of samples stored in the refrigerator were used to prepare the stock and standard solutions.

[4] = Solubility in water and SGF (24 hours, ambient temperature, HPLC/UV); type: physicochemical; conditions: for pH of the solubility sample in SGF / pH of the solubility sample in water: measured after 24 hours shaking; for Solubility in SGF (equiv. to free base): simulated gastric fluid without pepsin; for Solubility in SGF (equiv. to free base) / Solubility in water (equiv. to free base): ambient temperature, 24 hours
Procedure: Solubility in Water and SGF: A portion of the sample was weighed into a 2 mL clear HPLC vial. […] The sample was removed from the shaker and pH measurement was performed using a calibrated pH meter. Then a portion of the sample was filtered using […] Nylon-membraned centrifuge tube filter at 14000 RPM for 5 min. The filtrate was analyzed using HPLC/UV with appropriate dilution. The filtered solid residues were analyzed using XRPD.
For solubility in SGF, the samples were prepared and assayed in the same procedures as mentioned above.

[5] = Hygroscopicity by dynamic vapor sorption (DVS); type: physicochemical; conditions: 25° C., after pre-heating at 50° C. for 3 hours
[6] = 80° C./75% RH, listed as H2SO4 salt

hygroscopicity (sorption/desorption, in words) ([1]; DVS, 25° C.) | pH of the solubility sample in SGF [4] | pH of the solubility sample in water [4] | Solubility in SGF (equiv. to free base) [4] [µg/mL] | Solubility in water (equiv. to free base) [4] [µg/mL] | Structure (SMILES) | Hygroscopicity (80% RH, 25° C., cycle 1 sorption) [1] [%] | Physical stability (open vial, 2 weeks) ([2]; 80° C./75% RH) | Physical stability (open vial, 2 weeks) ([2]; 80° C.) | Chemical stability (open vial, 2 weeks) ([3]; 80° C./75% RH) | Chemical stability (open vial, 2 weeks) ([3]; 80° C.) | % Remaining at 80° C. ([3]; 80° C.) [%] | % Remaining at 80° C./75% RH ([3]; 80° C./75% RH) [%] | also measured
not hygroscopic | – | – | – | – | C[C@@H]1CC[C@@H](Nc2nc(NC(C)(C)C)ncc2C(N)=O)C[C@H]1O.O=P(O)(O)O [Compound H3PO4] | 0.48 | no change | no change | no change | no change | 101.1 | 99.9 | Physical stability (open vial, 2 weeks) ([2]; 80° C./75% RH, listed as H3PO4 salt): physically stable; Physical stability (open vial, 2 weeks) ([2]; 80° C., listed as H3PO4 salt): physically stable
hygroscopic | (pH 1.54) | (pH 4.07) | 8922 | 4496 | C[C@@H]1CC[C@@H](Nc2nc(NC(C)(C)C)ncc2C(N)=O)C[C@H]1O.O=C(O)C[C@H](O)C(=O)O [L-malate] | 5.60 | form change | form change | not chemically stable | not chemically stable | 87.7 | 92.9 | Physical stability (open vial, 2 weeks) ([2]; 80° C./75% RH, listed as L-malate salt): not physically stable; Physical stability (open vial, 2 weeks) ([2]; 80° C., listed as L-malate salt): not physically stable; Chemical stability (open vial, 2 weeks): degradation ([3]; 80° C./75% RH): ~7% degradation; Chemical stability (open vial, 2 weeks): degradation ([3]; 80° C.): ~12% degradation
hygroscopic | (pH 1.03) | (pH 1.69) | 3187 | 2647 | C[C@@H]1CC[C@@H](Nc2nc(NC(C)(C)C)ncc2C(N)=O)C[C@H]1O.O=S(=O)(O)O [Compound H2SO4] | 6.13 | form change | no change | no change | no change | 100.0 | 100.1 | Physical stability (open vial, 2 weeks) [2, 6]: not stable; Physical stability (open vial, 2 weeks) ([2]; 80° C., listed as H2SO4 salt): physically stable; Chemical stability (open vial, 2 weeks) [3, 6]: stable; Chemical stability (open vial, 2 weeks) ([3]; 80° C., listed as H2SO4 salt): stable
– | – | – | – | – | O=C(O)[C@H](O)[C@@H](O)C(=O)O [L-tartrate] | 0.81 | no change | no change | no change | no change | 98.7 | 98.3 | hygroscopicity (sorption/desorption, in words) ([1]; DVS, 25° C., listed as L-tartrate salt): slightly hygroscopic; hygroscopicity (sorption/desorption, in words) ([1]; DVS, 25° C., listed as L-tartrate salt (hydrate)): not hygroscopic; Physical stability (open vial, 2 weeks) ([2]; 80° C./75% RH, listed as L-tartrate salt): physically stable; Physical stability (open vial, 2 weeks) ([2]; 80° C., listed as L-tartrate salt): physically stable; Cycle 1 sorption at 20% RH [5]: 4.32%

Structure (SMILES) | hygroscopicity (sorption/desorption, in words) ([1]; DVS, 25° C.) | pH of the solubility sample in SGF [4] | pH of the solubility sample in water [4] | Solubility in SGF (equiv. to free base) [4] [µg/mL] | Solubility in water (equiv. to free base) [4] [µg/mL] | Hygroscopicity (80% RH, 25° C., cycle 1 sorption) [1] [%] | Physical stability (open vial, 2 weeks) ([2]; 80° C./75% RH) | Physical stability (open vial, 2 weeks) ([2]; 80° C.) | Chemical stability (open vial, 2 weeks) ([3]; 80° C./75% RH) | Chemical stability (open vial, 2 weeks) ([3]; 80° C.) | % Remaining at 80° C. ([3]; 80° C.) [%] | % Remaining at 80° C./75% RH ([3]; 80° C./75% RH) [%] | also measured
CC1CCC(Nc2nc(NC(C)(C)C)ncc2C(N)=O)CC1O.Cl (stereo not shown) [HCl] | hygroscopic | (pH 1.19) | (pH 3.87) | 6058 | 10761 | 5.21 | form change | no change | no change | no change | 101.2 | 100.4 | water uptake at 40% RH, Cycle 2 sorption isotherm ([1]; DVS, 25° C.): 4.89%; Physical stability (open vial, 2 weeks) ([2]; 80° C./75% RH, listed as HCl salt): not stable; Physical stability (open vial, 2 weeks) ([2]; 80° C., listed as HCl salt): physically stable
CC(O)C(=O)O.CC1CCC(Nc2nc(NC(C)(C)C)ncc2C(N)=O)CC1O [L-lactate] | moderately hygroscopic | – | – | – | – | 2.65 | form change | form change | no change | no change | 100.4 | 100.5 | Physical stability (open vial, 2 weeks) ([2]; 80° C./75% RH, listed as L-lactate salt form 2): not physically stable; Physical stability (open vial, 2 weeks) ([2]; 80° C., listed as L-lactate salt form 2): not physically stable
